The subject of this assay is cholesterol biosynthesis from acetate (liver microsome and sup fraction). The assay is described as follows: Test A: Inhibition of cholesterol biosynthesis from acetate in vitro. The conditions noted are these: for Relative activities by Test A: relative to CS-514 being evaluated to be 1. The class given is biochemical, male Wistar rat. On the procedure: Test A: Inhibition of cholesterol biosynthesis from acetate in vitro
Enzyme solution was prepared from liver of male Wistar rat billialy cannulated and discharged bile for over 24 hours. Liver was cut out at mid-dark and microsome and supernatant fraction which was precipitable with 40-80% of saturation of ammonium sulfate (sup fraction) were prepared from liver homogenate according to the modified method of Knauss et. al.; Kuroda, M., et. al., Biochim. Biophys. Acta, 489, 119 (1977). For assay of cholesterol biosynthesis, microsome (0.1 mg protein) and sup fraction (1.0 mg protein) were incubated for 2 hours at 37° C. in 200 μl of the reaction mixture containing ATP; 1 mM, Glutathione; 6 mM, Glucose-1-phosphate; 10 mM, NAD; 0.25 mM, NADP; 0.25 mM, CoA; 0.04 mM and 0.2 mM [2-^14 C]sodium acetate (0.2 μCi) with 4 μl of test compound solution dissolved in water or dimethyl sulfoxide. To stop reaction and saponify, 1 ml of 15% EtOH-KOH was added to the reactions and heated at 75° C. for 1 hour. […] Inhibitory activity of compounds was indicated with IC50.

The structures appear in SMILES notation. Structures can show the parent of a compound that is named as a salt.

For the compound `CC(C)c1nc2ccccc2c(-c2ccc(F)cc2)c1/C=C/C(O)CC(O)CC(=O)O` (stereo not drawn) [I-51, Sodium salt of (E)-3,5-dihydroxy-7-[4'-(4"-fluorophenyl)-2'-(1"-methylethyl)-quinolin-3 '-yl]-hept-6-enoic acid], where the note is “Test A, rat liver microsome + sup fraction, [2-14C]sodium acetate, 2 hours at 37° C., read-out: I50 (inhibitory activities by Test A)”, the IC50 is 0.01 µM.
With `CCOC(=O)CC(O)CC(O)/C=C/c1c(CC)nc2ccccc2c1-c1ccc(F)cc1` (stereo not drawn) [I-117], the “Relative activities by Test A” value was found to be 0.37.
As for `CC(C)c1nc2c(Cl)cc(Cl)cc2c(-c2ccc(F)cc2)c1/C=C/C(O)CC(O)CC(=O)O` (stereo not drawn) [I-522], the “Relative activities by Test A” value is 0.76.
